The subject of data set [1] is carotid artery shear stress model. The experiment in a line: Carotid artery shear stress model, amount of thrombus. It is filed as in vivo, Sprague-Dawley rats. The following applies: rat.
Data set [2] concerns thrombin-induced platelet aggregation, Human PRP. The data set is described as follows: Thrombin-induced platelet aggregation in human PRP (lumi-aggregometer).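 Also: aggregation recorded for 5 min after thrombin addition.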 Format: cell-based. Particulars: thrombin 0.6-0.8 U/ml. As to the method: (§1) To investigate whether the candidate substance has inhibition selectivity for shear-stress-induced platelet aggregation, which is by a physical stimulus, […] experiment was conducted by activating platelets with physiological agonists—i.e., thrombin, collagen and ADP—to study the inhibitory effect of the candidate substance.
(§2) Human PRP (598.8 μl) was treated with 1.2 μl of the candidate substance per concentration (25, 100, 250 μM) and reacted at 37° C. for 3 minutes using a thermomixer. Then, PRP (495 μl) was put in the aggregometer cuvette and preincubated for 1 minute, followed by treatment with platelet aggregation-inducing reagent, thrombin (0.6-0.8 U/ml), collagen (2-5 μg/ml), or ADP (adenosine diphosphate, 15-20 μM) at the minimum concentration causing maximum aggregation. The degree of aggregation of the platelets was measured by a turbidity change using a lumi-aggregometer (Chrono-Log Co., USA). The turbidity of the PRP was considered as 0%, and the turbidity of the PPP was considered as 100%. During the measurement, the reaction mixture was continuously stirred at 1,000 rpm with a silicone-coated magnetic stir bar.

Data set [3] deals with collagen-induced platelet aggregation, Human PRP. The data set is described as follows: Collagen-induced platelet aggregation in human PRP (lumi-aggregometer). It is filed as cell-based. Particulars: collagen 2-5 μg/ml. The protocol:
as §1, §2

Data set [4] has as its system human liver cells (HepG2). The experiment in a line: Cytotoxicity in human liver cells HepG2 (WST-1). It is filed as cell-based. Particulars: HepG2, 250 μM, 18 hours. As to the method: 5-3. Evaluation of Cytotoxicity of Candidate Substances Using Human Liver Cells
Experiments were conducted to evaluate cytotoxicity in human liver cells (HepG2). HepG2 cells, which are human liver carcinoma cell lines, were cultured in DMEM (Dulbecco's minimum essential medium) supplemented with 10% FBS (fetal bovine serum) and 1% Penicillin/Streptomycin at 37° C. and 5% CO2. The cells were cultured in a 48 well plate at 4×10^4 cells/well for 24 hours and then used in the experiments. The HepG2 cells were treated with the candidate substances (250 μM) for 18 hours, and then the medium was removed and WST-1 was added, followed by shading for 3 hours for reaction. After 3 hours, the supernatant was taken and absorbance was measured at 450 nm. Cell viability was calculated by comparing the absorbance measured after adding WST-1 to HepG2 cells not treated with the candidate substances. Acetaminophen (40 mM) was used as a control.
On the technique in general: Tetrazolium assays rely on reduction of a dye to a coloured formazan, in cell work by metabolically active cells.

A further data set has as its system Sprague-Dawley rats. The data set is described as follows: Bleeding side effect (tail bleeding time) after single oral administration. It is filed as in vivo. The following applies: rat, tail cut 1 hour after administration.
Data set [5] in a line: 2-week repeat-dose toxicity study. It is filed as in vivo. Particulars: both sexes, mouse, in vivo; ICR mice, oral 100, 300, 1000 mg/kg once a day for 2 weeks; read-out: NOAEL (No observed adverse effect level). The protocol:
(§3) After oral administration of vehicle (0.5% methylcellulose) or the candidate substances at low dose, medium dose, and high dose (100, 300, 1000 mg/kg) to ICR mice (female, male, 18 to 26 g) once a day for 2 weeks, the NOAEL values of the candidate substances were calculated by observing and recording mortality, body weight change, clinical observations, food and drinking water consumption, gross necropsy findings, histopathological evaluation of abnormal organ, and organ weights.

A further data set concerns ICR mice. The data set is described as follows: 2-week repeat-dose toxicity study. It is filed as in vivo. Particulars: oral 100, 300 and 1000 mg/kg once a day for 2 weeks. As to the method:
as §3

The test system of another data set is ICR mouse. The data set is described as follows: Bleeding side effect by repeated administration (tail bleeding time). Particulars: 50 mg/kg oral once daily for 7 days.

Molecules are shown by their SMILES.

Description for ICR mouse: One hour after the last administration, the mice were anesthetized by breathing, and the 4 mm portion from the tail tip of the mice was cut. Then, the tail tip of the mice was immersed in a transparent 15-ml tube containing the pre-prepared 37° C. saline. The time when blood was not spread any more and the bleeding stopped was measured.

On to `COc1cc(C(=O)Oc2c(C)occc2=O)ccc1O` [Example 14, 2-Methyl-4-oxo-4H-pyran-3-yl 4-hydroxy-3-methoxybenzoate], for which the “Amount of thrombus (mg, Mean ± SEM)” value in data set [1] (25 mg/kg oral, twice a day for 3 days after operation) is given as 0.066 ± 0.006 mg. Further, the “shear stress-induced thrombogenesis compared with the control group” value in data set [1] (oral) was “significantly, remarkably inhibited”. The “Degree of platelet aggregation (%, Mean ± SEM)” value in data set [2] (25 μM) is 81.3 ± 2.5%; in data set [2] (100 μM), 84.0 ± 0.6%; in data set [2] (250 μM), 86.0 ± 4.6%; in data set [3] (25 μM), 82.0 ± 1.7%; in data set [3] (100 μM), 80.0 ± 1.7%; in data set [3] (250 μM) it was 92.0 ± 2.0%. The “Cell vaibility (%)” value in data set [4] was determined as 87.3 ± 2.7%. In addition, the entries for the “Bleeding time” value in the data set on Sprague-Dawley rats (25 μM (so in the source)), with Sprague-Dawley rats (100 μM (so in the source)) and in the data set with ICR mouse were 6.7 ± 0.9 min, 6.3 ± 0.6 min and 1.6 ± 0.3 min, respectively. In addition, the no observed adverse effect level (NOAEL) at 2 weeks in data set [5] is greater than 1000 mg/kg. For the same molecule, the “findings in body weight change, clinical observations, food and drinking water consumption, gross necropsy findings, and organ weights” value in the data set with ICR mice is “no abnormal findings were observed”. In addition, the mortality entry with ICR mice was “no dead animals were observed”.

Broadly, the NOAEL is the highest dose or exposure tested at which no adverse effect was seen.
